From patent US4550172A, “Novel heterocyclic compounds as antiallergic agents” (American Home Products Corporation, priority 1984, dated 1985)

Tested on: LTD4 induced bronchoconstriction
Assay: inhibition of LTD4-induced bronchospasm in guinea pigs (SRS-A antagonist properties)
Format: in vivo, guinea pigs (male Hartley strain)
Conditions: LTD4 for induction, compound 50 mg/kg intraduodenal, 10 minutes before induction of bronchospasm
Description: The assay of this Example measures the in vivo ability of the components of the invention to inhibit the bronchospasm induced in guinea pigs by the exogenously administered leukotrienes C4 and/or D4. This assay is essentially a measure of the SRS-A antagonist properties of the compounds tested.
This assay is carried out as follows:
Male Hartley strain guinea pigs (350-600 g) are anesthetized with pentobarbital sodium (50 mg/kg, i.p.). The jugular vein is cannulated for injection of drugs and the carotid artery for monitoring blood pressure. The trachea is cannulated for artificial ventilation by a miniature Starling pump and for indirect measurement of respiratory volume changes as described infra. Additional pentobarbital sodium (15 mg/kg, i.v.) is administered to arrest spontaneous respiration. Submaximal bronchoconstrictor responses are established in control animals by varying the dose-levels of leukotriene. Intravenous dose-levels for LTC4 range from 1 to 2 μg/kg and for LTD4 the range is from 0.3 to 1 μg/kg. The aerosol bronchoprovocation dose for LTC4 is generated from 1.6 μM solution and for LTD4 from a 2.0 μM solution.
Test drugs are administered either intravenously, intraduodenally, by aerosol or orally at 1 or 10 minutes before induction of bronchospasm by administration of either LTC4 or LTD4 at the predetermined dose-levels. Aerosols of soluble drugs or leukotrienes are produced in-line for 10 seconds only by actuation of an ultrasonic nebulizer (Monaghan). Aerosolized drug dosage is expressed in terms of solution concentration and by a fixed aerosol exposure time (approximately 10 seconds). Control animals receive saline in place of drug.
Respiratory volume changes are determined by a calibrated piston whose travel is recorded, via a linear transducer, on a Beckman Dynograph recorder. Maximal bronchoconstrictor volume is determined by clamping off the trachea at the end of the experiment. Overflow volumes at 1, 3 and 5 minutes are obtained from the recorded charts.
The overflow volume at 1, 3 and 5 minutes is expressed as a percentage of maximal bronchoconstriction. Combined group values are used from each of these time intervals to determine the inhibitory effect of drugs. [formula] Students t-test for unpaired data is used to determine statistical significance. Dose response curves are generated and ED50 doses are interpolated from the regression lines.
Results for a compound of the invention in this assay, using LTD4 for induction of bronchospasm, is given below: […]

Structure (SMILES)	% Inhibition Overflow Volume at 3 min. [%]	% Inhibition Overflow Volume at 5 min. [%]
O=C1CCC(=O)N1c1cccc(OCc2nc3ccccc3s2)c1 [Example 1, N-[3-[(2-benzothiazolyl)methoxy]phenyl]pyrrolidin-2,5-dione]	63	68
Cn1c(COc2cccc(N3C(=O)CCC3=O)c2)nc2ccccc21 [Example 2, N-[3-[(1-methyl-2-benzimidazolyl)methoxy]phenyl]pyrrpolidin-2,5-dione]	75	78
